Reference: patent US20040086553A1, “Foods and beverages for whitening and orally administered whitening agents” (The Nisshin OilliO, Ltd., priority 2000, published 2004)
Like-named read-outs stand apart in the source and are kept apart here.

What was measured:
[1] = system: B-16 melanoma cells; test: Evaluation of melanin production-inhibitory function (degree of whiteness of cultured cells); format: cell-based; conditions: for melanin production-inhibitory function relative to that observed for the positive control/standard: compared with 450 ppm of vitamin C-magnesium phosphate; for Evaluation of Melanin Production-Inhibition (degree of whiteness of cells): key: ++: The degree of whiteness is higher than that observed for the positive control; +: The degree of whiteness is almost identical to that of the positive control; ±: The degree of whiteness is not higher than that observed for the positive control, but higher than that observed for control; −: The degree of whiteness is almost identical to that observed for the control
Text: The melanin production-inhibitory function of the 5-membered ring-containing triterpenes incorporated into the foods or beverages and orally administered whitening agents of the present invention can be determined by a test method, which makes use of cultured melanocytes. The term “melanocyte(s)” used herein means cells having an ability of producing melanin and when cultivating these cells in the usual manner, the cells are blackened due to the accumulation of melanin pigment thus produced. Contrary to this, if a substance having such a melanin production-inhibitory function is incorporated into this cultivation system, the melanin production is suppressed and the skin is relatively whitened. The melanin production-inhibitory function can likewise be evaluated on the basis of this degree of relative whitening.
A culture medium (2 mL/well) was dispensed to a 6-well plate, a predetermined amount of B-16 melanoma cells was inoculated into the culture medium in each well and the cells were cultured at 37° C. and 5% CO2 by allowing the culture medium to stand. On the next day, a solution of test sample (each 5-membered ring-containing triterpene to be evaluated) having a predetermined concentration was added to and mixed with the culture medium and the cultivation was continued. On the 5th day from the initiation of the cultivation, the culture medium was exchanged and the test sample solution was again added to each well. On the next day, the culture medium was removed from each well to thus recover the cells, followed by washing the cells with PBS (phosphate-buffered physiological saline) and evaluation of the desired function based on the degree of whiteness of the cells. In this connection, the melanin production-inhibitory effect was evaluated by comparing the resulting degree of whiteness with that observed when 450 ppm of vitamin C-magnesium phosphate having a known effect was added instead of the test sample solution (positive control) and that observed when any test sample was not added (control) according to the following criteria.
The evaluation criteria for the degree of whiteness of cells are as follows: […]

[2] = system: deposition of melanin pigment on the skin induced by the UV light irradiation; test: Animal test for the confirmation of whitening effect (UV-induced skin pigmentation, test feed); format: in vivo, Brown guinea pigs; conditions: 4 weeks; for Evaluation Results CI: number of 7 animals ranked Conspicuous Imp.; for Evaluation Results MI: number of 7 animals ranked Medium Imp.; for Evaluation Results NC: number of 7 animals ranked No Change; for Evaluation Results SI: number of 7 animals ranked Slight Imp.
Text: More specifically, the whitening effect can be evaluated by removing a half of the hair on the back of each brown guinea pig, keeping these animals over 2 weeks while irradiating the hair-removed area with a UV lamp, dividing these guinea pigs into groups in such a manner that there is not any difference in the degree of the melanin pigmentation induced by the UN light irradiation, allowing the animals in each group to freely take a test food comprising a feed having a low vitamin C content to which a variety of triterpenes have been added and keeping these animals over additional 4 weeks to evaluate the degree of skin pigmentation while comparing the same with those observed for a control group and for a positive control group.
Brown guinea pigs (5-week-old male animals) were preliminarily kept for one week using a commercially available feed (CG-7 available from Nippon Kurea Company), a half of the hair on the back was removed and the hair-removed portion on the back was irradiated with light rays emitted from a UV lamp of 1.2 mW for 5 minutes on the 1st day and then with light rays emitted from a UV lamp of 1.0 mW for 5 minutes on the 2nd and 3rd days. Subsequently, these animals were kept over 2 weeks using a feed having a low vitamin C content (200.0 mg/kg feed), these guinea pigs were divided into 12 groups (comprising 7 animals each) in such a manner that there was not observed any difference in the degree of deposition of melanin pigment on the skin induced by the UV light irradiation between groups and then the animals were allowed to freely ingest each test feed comprising the feed having a low vitamin C content to which each triterpene had been added in an amount specified in the following Table 2. In this respect, however, the vitamin C-deficient feed per se was supplied to the control group and a vitamin C-supplemented feed was supplied to the positive control group. After 4 weeks from the supply of the test feed, the degree of the pigmentation of the skin was evaluated according to the following criteria.

[3] = Concentration 2 ppm, rank vs 450 ppm vitamin C-magnesium phosphate
[4] = Concentration 4 ppm, rank vs 450 ppm vitamin C-magnesium phosphate
[5] = Concentration 6 ppm, rank vs 450 ppm vitamin C-magnesium phosphate
[6] = Concentration 8 ppm, rank vs 450 ppm vitamin C-magnesium phosphate
[7] = Concentration 10 ppm, rank vs 450 ppm vitamin C-magnesium phosphate
[8] = Concentration 15 ppm, rank vs 450 ppm vitamin C-magnesium phosphate
[9] = Concentration 25 ppm, rank vs 450 ppm vitamin C-magnesium phosphate
[10] = Concentration 50 ppm, rank vs 450 ppm vitamin C-magnesium phosphate
[11] = 500.0 mg/kg feed, free ingestion
[12] = positive control group, 2500.0 mg/kg feed

| Molecule | Evaluation of Melanin Production-Inhibition (degree of whiteness of cells) [1, 3] | Evaluation of Melanin Production-Inhibition (degree of whiteness of cells) [1, 5] | Evaluation of Melanin Production-Inhibition (degree of whiteness of cells) [1, 7] | melanin production-inhibitory function relative to that observed for the positive control/standard [1] | Evaluation of Melanin Production-Inhibition (degree of whiteness of cells) [1, 9] | Evaluation of Melanin Production-Inhibition (degree of whiteness of cells) [1, 10] | further results |
| --- | --- | --- | --- | --- | --- | --- | --- |
| 2,3-O-di-Stearoyl-Maslinic Acid Ethyl Ester [Compound of Synthetic Example 4] | ± | + | ++ | about 75 times |  |  | Evaluation of Melanin Production-Inhibition (degree of whiteness of cells) [1, 4]: ±; Evaluation of Melanin Production-Inhibition (degree of whiteness of cells) [1, 6]: ++; Evaluation of Melanin Production-Inhibition (degree of whiteness of cells) [1, 8]: ++ |
| 2,3-O-di-Triethylsilyl-Maslinic Acid Triethylsilyl Ester [Compound of Synthetic Example 3] | − | ± | + | about 40 times | + | + |  |
| C=C(C)[C@@H]1CC[C@]2(CO)CC[C@]3(C)[C@H](CC[C@@H]4[C@@]5(C)CC[C@H](O)C(C)(C)[C@@H]5CC[C@]43C)[C@@H]12 [Betulin] | − | ± | ± | about 40 times |  |  | Evaluation Results CI [2, 11]: 1; Evaluation Results MI [2, 11]: 3; Evaluation Results NC [2, 11]: 1; Evaluation Results SI [2, 11]: 2 |
| C=C(C)[C@@H]1CC[C@]2(C(=O)O)CC[C@]3(C)[C@H](CC[C@@H]4[C@@]5(C)CC[C@H](O)C(C)(C)[C@@H]5CC[C@]43C)[C@@H]12 [Betulinic acid] | − | ± | + | about 20 times |  |  | Evaluation Results CI [2, 11]: 2; Evaluation Results MI [2, 11]: 4; Evaluation Results NC [2, 11]: 0; Evaluation Results SI [2, 11]: 1 |
| CCOC(=O)[C@]12CCC(C)(C)C[C@H]1C1=CC[C@@H]3[C@@]4(C)C[C@@H](O)[C@H](O)C(C)(C)[C@@H]4CC[C@@]3(C)[C@]1(C)CC2 [Compound of Synthetic Example 1, Ethyl Maslinate] | ± | ++ | ++ | about 110 times |  |  | Evaluation Results CI [2, 11]: 2; Evaluation Results MI [2, 11]: 3; Evaluation Results NC [2, 11]: 1; Evaluation Results SI [2, 11]: 1; Evaluation of Melanin Production-Inhibition (degree of whiteness of cells) [1, 4]: +; Evaluation of Melanin Production-Inhibition (degree of whiteness of cells) [1, 6]: ++ |
| CC(=O)OCC12CCC(C)(C)CC1C1=CCC3C4(C)CCC(OC(C)=O)C(C)(C)C4CCC3(C)C1(C)CC2 (stereo not shown) [Compound of Synthetic Example 5, 3,28-O-di-Acetyl-Erythrodiol] | − | ± | ± | about 20 times | + | + |  |
| CCOC(=O)[C@]12CC[C@@H](C)[C@H](C)[C@H]1C1=CC[C@@H]3[C@@]4(C)CC[C@H](O)C(C)(C)[C@@H]4CC[C@@]3(C)[C@]1(C)CC2 [Compound of Synthetic Example 6, Ursolic Acid Ethyl Ester] | ± | ++ | ++ | about 110 times |  |  | Evaluation of Melanin Production-Inhibition (degree of whiteness of cells) [1, 4]: +; Evaluation of Melanin Production-Inhibition (degree of whiteness of cells) [1, 6]: ++ |
| CC(=O)OC[C@]12CC[C@@H](C)[C@H](C)[C@H]1C1=CC[C@@H]3[C@@]4(C)CC[C@H](OC(C)=O)C(C)(C)[C@@H]4CC[C@@]3(C)[C@]1(C)CC2 [Compound of Synthetic Example 7, 3,28-O-di-Acetyl-Uvaol] | − | − | ± | about 20 times | + | + |  |
| C=C(C)[C@@H]1CC[C@]2(C(=O)OCC)CC[C@]3(C)[C@H](CC[C@@H]4[C@@]5(C)CC[C@H](O)C(C)(C)[C@@H]5CC[C@]43C)[C@@H]12 [Compound of Synthetic Example 8, Betulinic Acid Ethyl Ester] | − | ± | ± | about 20 times | + | + |  |
| C=C(C)[C@@H]1CC[C@]2(COC(C)=O)CC[C@]3(C)[C@H](CC[C@@H]4[C@@]5(C)CC[C@H](OC(C)=O)C(C)(C)[C@@H]5CC[C@]43C)[C@@H]12 [Compound of Synthetic Example 9, 3,28-O-di-Acetyl-Betulin] | − | − | ± | about 10 times | ± | + |  |
| O=c1cc(CO)occ1O [Kojic acid, reference compound] |  |  | − |  | − | ± | Evaluation of Melanin Production-Inhibition (degree of whiteness of cells) [1, 8]: −; Evaluation of Melanin Production-Inhibition (degree of whiteness of cells) ([1]; Concentration 100 ppm, rank vs 450 ppm vitamin C-magnesium phosphate): ±; Evaluation of Melanin Production-Inhibition (degree of whiteness of cells) ([1]; Concentration 200 ppm, rank vs 450 ppm vitamin C-magnesium phosphate): +; Evaluation of Melanin Production-Inhibition (degree of whiteness of cells) ([1]; Concentration 300 ppm, rank vs 450 ppm vitamin C-magnesium phosphate): ++; Evaluation of Melanin Production-Inhibition (degree of whiteness of cells) ([1]; Concentration 450 ppm, rank vs 450 ppm vitamin C-magnesium phosphate): ++ |
| O=C1O[C@H]([C@@H](O)CO)C(O)=C1O [L-Ascorbic acid, reference compound] |  |  |  |  |  |  | Evaluation Results CI [2, 12]: 0; Evaluation Results MI [2, 12]: 1; Evaluation Results NC [2, 12]: 2; Evaluation Results SI [2, 12]: 4 |
| CC1(C)CC[C@]2(C(=O)O)CC[C@]3(C)C(=CC[C@@H]4[C@@]5(C)C[C@@H](O)[C@H](O)C(C)(C)[C@@H]5CC[C@]43C)[C@@H]2C1 [Purified maslinic acid 3, maslinic acid] |  |  |  |  |  |  | Evaluation of Melanin Production-Inhibition (degree of whiteness of cells) [1]: ± and + and ++ |
